Data taken from patent publication US20230123334A1, “AMINO LIPID COMPOUND, PREPARATION METHOD THEREFOR, AND APPLICATION THEREOF” (SHENZHEN SHENXIN BIOTECHNOLOGY CO., LTD., priority 2020, published 2023).

The compounds below were run on HEK293 cells (assay: Preliminary screening as DNA vectors, GFP transfection of HEK293 cells). Conditions: amino lipid/DOPE liposome with 75 ng plasmid DNA (psin-EGFP-IRES-Puro); number of GFP-expressing cells divided by total nuclei (Hoechst).
Assay type: cell-based
In short: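 HEK293 cells in DMEM/10% FBS transfected with 75 ng EGFP plasmid per well complexed with amino lipid/DOPE liposomes in pH 5.6 sodium acetate. Hoechst nuclear stain added 20-24 h post-transfection, then cells cultured another 20-24 h. Confocal imaging gives GFP-positive cells as % of total nuclei.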

`CCCCCCCCCCCCCCCCSc1nc(NCCCCCCCCCCCC)nc(NCCN2CCCCC2)n1` [S16N12 D4] and `CCCCCCCCCCCCCCCCSc1nc(NCCCCCCCCCCCCC)nc(NCCN2CCCCC2)n1` [S16N13 D4] are the same in “Absolute DNA transfection efficiency in HEK293 cells” value (“Absolute DNA transfection efficiency” for short): 0.0% for the first, 0.0% for the second.

Going from `CCCCCCCCCCCCCCCCSc1nc(NCCCCCCCCCCCC)nc(NCCN2CCN(C)CC2)n1` [S16N12 D5] to `CCCCCCCCCCCCCCCCSc1nc(NCCCCCCCCCCCCC)nc(NCCN2CCN(C)CC2)n1` [S16N13 D5], the “Absolute DNA transfection efficiency” value falls from 1.9% to 0.8%.

First: CCCCCCCCCCCCCCCCSc1nc(NCCCCCCCCCCCC)nc(NCCCN(C)C)n1 [S16N12 D6]
Second: CCCCCCCCCCCCCCCCSc1nc(NCCCCCCCCCCCCC)nc(NCCCN(C)C)n1 [S16N13 D6]
The “Absolute DNA transfection efficiency” value of the first is higher: 2.7% for the first, 1.2% for the second.

Going from `CCCCCCCCCCCCCCCCSc1nc(NCCCCCCCCCCCC)nc(NCCN(CC)CC)n1` [S16N12 D7] to `CCCCCCCCCCCCCCCCSc1nc(NCCCCCCCCCCCCC)nc(NCCN(CC)CC)n1` [S16N13 D7], the “Absolute DNA transfection efficiency” value rises from 0.7% to 3.7%.

First: CCCCCCCCCCCCCCCCSc1nc(NCCCCCCCCCCCC)nc(NCCCN2CCOCC2)n1 [S16N12 D8]
Second: CCCCCCCCCCCCCCCCSc1nc(NCCCCCCCCCCCCC)nc(NCCCN2CCOCC2)n1 [S16N13 D8]
The “Absolute DNA transfection efficiency” value of the first is lower: 0.0% for the first, 0.2% for the second.

First: CCCCCCCCCCCCCCCCSc1nc(NCCCCCCCCCCCC)nc(NCCCN2CCN(C)CC2)n1 [S16N12 D9]
Second: CCCCCCCCCCCCCCCCSc1nc(NCCCCCCCCCCCCC)nc(NCCCN2CCN(C)CC2)n1 [S16N13 D9]
The “Absolute DNA transfection efficiency” value of the first is higher: 11.4% for the first, 5.7% for the second.

First: CCCCCCCCCCCCCCCCSc1nc(NCCCCCCCCCCCC)nc(NCC2CCN(C)CC2)n1 [S16N12 D10]
Second: CCCCCCCCCCCCCCCCSc1nc(NCCCCCCCCCCCCC)nc(NCC2CCN(C)CC2)n1 [S16N13 D10]
The “Absolute DNA transfection efficiency” value of the first is higher: 2.1% for the first, 2.0% for the second.

Going from `CCCCCCCCCCCCCCCCSc1nc(NCCCCCCCCCCCCC)nc(NCCN(C)C)n1` [S16N13 D1] to `CCCCCCCCCCCCCCCCSc1nc(NCCCCCCCCCCCCCCC)nc(NCCN(C)C)n1` [S16N15 D1], the “Absolute DNA transfection efficiency” value rises from 1.2% to 1.6%.

`CCCCCCCCCCCCCCCCSc1nc(NCCCCCCCCCCCCC)nc(NCCN2CCOCC2)n1` [S16N13 D2] and `CCCCCCCCCCCCCCCCSc1nc(NCCCCCCCCCCCCCCC)nc(NCCN2CCOCC2)n1` [S16N15 D2] are the same in “Absolute DNA transfection efficiency” value: 0.0% for the first, 0.0% for the second.

Going from `CCCCCCCCCCCCCCCCSc1nc(NCCCCCCCCCCCCC)nc(NCCN2CCCC2)n1` [S16N13 D3] to `CCCCCCCCCCCCCCCCSc1nc(NCCCCCCCCCCCCCCC)nc(NCCN2CCCC2)n1` [S16N15 D3], the “Absolute DNA transfection efficiency” value falls from 1.5% to 0.0%.

First: CCCCCCCCCCCCCCCCSc1nc(NCCCCCCCCCCCCCCC)nc(NCCN2CCCCC2)n1 [S16N15 D4]
Second: CCCCCCCCCCCCCCCCNc1nc(NCCN2CCCCC2)nc(SCCCCCCCCCCCCCCCC)n1 [S16N16 D4]
The “Absolute DNA transfection efficiency” value of the first is lower: 2.6% for the first, 3.4% for the second.

Going from `CCCCCCCCCCCCCCCCSc1nc(NCCCCCCCCCCCCCCC)nc(NCCN2CCN(C)CC2)n1` [S16N15 D5] to `CCCCCCCCCCCCCCCCNc1nc(NCCN2CCN(C)CC2)nc(SCCCCCCCCCCCCCCCC)n1` [S16N16 D5], the “Absolute DNA transfection efficiency” value rises from 0.3% to 0.5%.

First: CCCCCCCCCCCCCCCCSc1nc(NCCCCCCCCCCCCCCC)nc(NCCCN(C)C)n1 [S16N15 D6]
Second: CCCCCCCCCCCCCCCCNc1nc(NCCCN(C)C)nc(SCCCCCCCCCCCCCCCC)n1 [S16N16 D6]
The “Absolute DNA transfection efficiency” value of the first is lower: 0.0% for the first, 0.1% for the second.

First: CCCCCCCCCCCCCCCCSc1nc(NCCCCCCCCCCCCCCC)nc(NCCN(CC)CC)n1 [S16N15 D7]
Second: CCCCCCCCCCCCCCCCNc1nc(NCCN(CC)CC)nc(SCCCCCCCCCCCCCCCC)n1 [S16N16 D7]
The “Absolute DNA transfection efficiency” value of the first is higher: 0.6% for the first, 0.2% for the second.

`CCCCCCCCCCCCCCCCSc1nc(NCCCCCCCCCCCCCCC)nc(NCCCN2CCOCC2)n1` [S16N15 D8] and `CCCCCCCCCCCCCCCCNc1nc(NCCCN2CCOCC2)nc(SCCCCCCCCCCCCCCCC)n1` [S16N16 D8] are the same in “Absolute DNA transfection efficiency” value: 0.0% for the first, 0.0% for the second.

Going from `CCCCCCCCCCCCCCCCSc1nc(NCCCCCCCCCCCCCCC)nc(NCCCN2CCN(C)CC2)n1` [S16N15 D9] to `CCCCCCCCCCCCCCCCNc1nc(NCCCN2CCN(C)CC2)nc(SCCCCCCCCCCCCCCCC)n1` [S16N16 D9], the “Absolute DNA transfection efficiency” value falls from 0.3% to 0.0%.

`CCCCCCCCCCCCCCCCSc1nc(NCCCCCCCCCCCCCCC)nc(NCC2CCN(C)CC2)n1` [S16N15 D10] and `CCCCCCCCCCCCCCCCNc1nc(NCC2CCN(C)CC2)nc(SCCCCCCCCCCCCCCCC)n1` [S16N16 D10] are the same in “Absolute DNA transfection efficiency” value: 0.2% for the first, 0.2% for the second.

Going from `CCCCCCCCCCCCCCCCNc1nc(NCCN(C)C)nc(SCCCCCCCCCCCCCCCC)n1` [S16N16 D1] to `CCCCCCCCCCCCCCCCCCNc1nc(NCCN(C)C)nc(SCCCCCCCCCCCCCCCC)n1` [S16N18 D1], the “Absolute DNA transfection efficiency” value falls from 0.7% to 0.3%.

`CCCCCCCCCCCCCCCCNc1nc(NCCN2CCOCC2)nc(SCCCCCCCCCCCCCCCC)n1` [S16N16 D2] and `CCCCCCCCCCCCCCCCCCNc1nc(NCCN2CCOCC2)nc(SCCCCCCCCCCCCCCCC)n1` [S16N18 D2] are the same in “Absolute DNA transfection efficiency” value: 0.0% for the first, 0.0% for the second.

Compared with `CCCCCCCCCCCCCCCCNc1nc(NCCN2CCCC2)nc(SCCCCCCCCCCCCCCCC)n1` [S16N16 D3], `CCCCCCCCCCCCCCCCCCNc1nc(NCCN2CCCC2)nc(SCCCCCCCCCCCCCCCC)n1` [S16N18 D3] is lower in “Absolute DNA transfection efficiency” value: 1.6% for the first, 0.6% for the second.

Going from `CCCCCCCCCCCCCCCCCCNc1nc(NCCN2CCCCC2)nc(SCCCCCCCCCCCCCCCC)n1` [S16N18 D4] to `CCCCCCCCCCCCCCCCCCNc1nc(NCCN2CCN(C)CC2)nc(SCCCCCCCCCCCCCCCC)n1` [S16N18 D5], the “Absolute DNA transfection efficiency” value falls from 0.2% to 0.0%.

`CCCCCCCCCCCCCCCCCCNc1nc(NCCCN(C)C)nc(SCCCCCCCCCCCCCCCC)n1` [S16N18 D6] and `CCCCCCCCCCCCCCCCCCNc1nc(NCCN(CC)CC)nc(SCCCCCCCCCCCCCCCC)n1` [S16N18 D7] are the same in “Absolute DNA transfection efficiency” value: 0.0% for the first, 0.0% for the second.

`CCCCCCCCCCCCCCCCCCNc1nc(NCCCN2CCOCC2)nc(SCCCCCCCCCCCCCCCC)n1` [S16N18 D8] and `CCCCCCCCCCCCCCCCCCNc1nc(NCCCN2CCN(C)CC2)nc(SCCCCCCCCCCCCCCCC)n1` [S16N18 D9] are the same in “Absolute DNA transfection efficiency” value: 0.0% for the first, 0.0% for the second.

First: CCCCCCCCCCCCCCCCCCNc1nc(NCC2CCN(C)CC2)nc(SCCCCCCCCCCCCCCCC)n1 [S16N18 D10]
Second: CCCCCCCCCCCCCCCCSc1nc(NCC2CCN(C)CC2)nc(N(CCCCCCCCCCCC)CCCCCCCCCCCC)n1 [S16^2N12 D10]
The “Absolute DNA transfection efficiency” value of the first is higher: 1.2% for the first, 0.3% for the second.

`CCCCCCCCCCCCCCCCSc1nc(NCCN(C)C)nc(N(CCCCCCCCCCCC)CCCCCCCCCCCC)n1` [S16^2N12 D1] and `CCCCCCCCCCCCCCCCSc1nc(NCCCN(C)C)nc(N(CCCCCCCCCCCC)CCCCCCCCCCCC)n1` [S16^2N12 D6] are the same in “Absolute DNA transfection efficiency” value: 0.0% for the first, 0.0% for the second.

`CCCCCCCCCCCCCCCCSc1nc(NCCN2CCOCC2)nc(N(CCCCCCCCCCCC)CCCCCCCCCCCC)n1` [S16^2N12 D2] and `CCCCCCCCCCCCCCCCSc1nc(NCCCN2CCOCC2)nc(N(CCCCCCCCCCCC)CCCCCCCCCCCC)n1` [S16^2N12 D8] are the same in “Absolute DNA transfection efficiency” value: 0.0% for the first, 0.0% for the second.

Compared with `CCCCCCCCCCCCCCCCSc1nc(NCCN2CCCC2)nc(N(CCCCCCCCCCCC)CCCCCCCCCCCC)n1` [S16^2N12 D3], `CCCCCCCCCCCCCCCCSc1nc(NCCN2CCCCC2)nc(N(CCCCCCCCCCCC)CCCCCCCCCCCC)n1` [S16^2N12 D4] is higher in “Absolute DNA transfection efficiency” value: 0.0% for the first, 0.1% for the second.

Going from `CCCCCCCCCCCCCCCCSc1nc(NCCN2CCN(C)CC2)nc(N(CCCCCCCCCCCC)CCCCCCCCCCCC)n1` [S16^2N12 D5] to `CCCCCCCCCCCCCCCCSc1nc(NCCCN2CCN(C)CC2)nc(N(CCCCCCCCCCCC)CCCCCCCCCCCC)n1` [S16^2N12 D9], the “Absolute DNA transfection efficiency” value rises from 0.0% to 0.6%.

First: CCCCCCCCCCCCCCCCSc1nc(NCCN(CC)CC)nc(N(CCCCCCCCCCCC)CCCCCCCCCCCC)n1 [S16^2N12 D7]
Second: CCCCCCCCCCCCCCCCCCSc1nc(NCCCCCC)nc(NCCN(C)C)n1 [S18N6 D1]
The “Absolute DNA transfection efficiency” value of the first is lower: 0.1% for the first, 6.9% for the second.

Going from `CCCCCCCCCCCCCCCCCCSc1nc(NCCCCCC)nc(NCCN2CCOCC2)n1` [S18N6 D2] to `CCCCCCCCCCCCCCCCCCSc1nc(NCCCCCC)nc(NCCN2CCCC2)n1` [S18N6 D3], the “Absolute DNA transfection efficiency” value rises from 5.9% to 22.1%.
